Source: patent EP4768489A1, “CYCLOBUTYL-CONTAINING COMPOUNDS” (Chia Tai Tianqing Pharmaceutical Group Co., Ltd., priority 2023, dated 2025)
Substitutions are numbered along the chain they refer to.

Assays:
[1] = system: LNCaP (T878A) cells; test: cells; conditions: Homo sapiens, 168 h
Protocol: LNCaP cells in a good growth state were taken, washed with PBS, and digested with pancreatin, and a phenol red-free 1640 complete medium containing 2% CSS-FBS was added to terminate the digestion. The cells were collected into a centrifuge tube, adjusted to a cell density of 1 × 10^5 cells/mL, and seeded in a 96-well plate (100 µL/well). Meanwhile, compounds were added using a nanoliter pipettor and subjected to a 2-fold gradient dilution such that the final concentrations of the compounds were 1000 nM-0.061 nM and 5000 nM-0.305 nM. 2 duplicate wells were set, and meanwhile, a control was set. After the cells were cultured in the cell incubator for another 168 h, the detection reagent CCK-8 (manufacturer: Dojindo, 10 µL/well) was added. After 2.0 h of incubation in the cell incubator, absorbance values at 450 nm were measured using a PerkinElmer Envision microplate reader, the four-parameter analysis was performed, the dose-response curves were fit, and IC50 was calculated.

[2] = In vitro liver microsome stability, mouse; type: in vitro ADME; conditions: mouse liver microsomes 0.5 mg/mL, 37 °C, NADPH
Protocol: (§1) Liver microsome incubation samples were prepared by mixing a PBS buffer (pH 7.4), a liver microsome solution (0.5 mg/mL), a test compound, and an NADPH + MgCl2 solution, followed by incubation at 37 °C and 300 rpm for 1 h. Zero-hour samples were prepared by mixing a PBS buffer (pH 7.4), a liver microsome solution (0.5 mg/mL), and a test compound. […]

[3] = molecular target: T1, AR in LNCaP (T878A) cells (Homo sapiens, UniProt P10275, T878A); test: Assay on degradation activity for AR in LNCaP (T878A) cells (HTRF); type: cell-based; conditions: maximum degradation rate, 24 h
T1 construct: Assay on degradation activity for AR in LNCaP (T878A) cells; endogenous in cells; host or cells: LNCaP cells
T1 sequence (P10275 1-920 T878A): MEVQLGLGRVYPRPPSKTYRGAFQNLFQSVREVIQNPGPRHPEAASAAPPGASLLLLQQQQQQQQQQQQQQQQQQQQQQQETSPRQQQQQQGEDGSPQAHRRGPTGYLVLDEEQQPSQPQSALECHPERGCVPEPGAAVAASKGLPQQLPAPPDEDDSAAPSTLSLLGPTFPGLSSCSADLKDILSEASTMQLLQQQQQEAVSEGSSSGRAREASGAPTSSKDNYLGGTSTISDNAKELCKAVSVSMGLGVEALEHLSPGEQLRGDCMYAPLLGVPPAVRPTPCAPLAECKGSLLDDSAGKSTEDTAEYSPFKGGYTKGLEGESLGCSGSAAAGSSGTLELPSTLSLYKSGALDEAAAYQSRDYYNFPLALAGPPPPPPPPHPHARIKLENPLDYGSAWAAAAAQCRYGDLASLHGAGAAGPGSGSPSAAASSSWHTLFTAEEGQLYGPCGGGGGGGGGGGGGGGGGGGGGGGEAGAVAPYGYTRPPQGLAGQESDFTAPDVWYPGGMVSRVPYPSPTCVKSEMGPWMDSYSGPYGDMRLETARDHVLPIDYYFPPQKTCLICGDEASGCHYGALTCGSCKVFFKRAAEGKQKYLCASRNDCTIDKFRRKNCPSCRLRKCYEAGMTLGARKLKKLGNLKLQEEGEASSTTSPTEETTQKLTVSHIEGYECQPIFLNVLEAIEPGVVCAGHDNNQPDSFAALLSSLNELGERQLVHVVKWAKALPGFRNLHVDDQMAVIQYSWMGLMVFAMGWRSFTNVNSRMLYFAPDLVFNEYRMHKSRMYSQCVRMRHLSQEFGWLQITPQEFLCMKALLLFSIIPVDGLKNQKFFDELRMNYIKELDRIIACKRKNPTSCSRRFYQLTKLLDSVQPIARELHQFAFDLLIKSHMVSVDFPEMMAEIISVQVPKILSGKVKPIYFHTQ
Protocol: (§2) The detection was carried out using the HTRF HUMAN ANDROGEN RECEPTOR DETECTION KIT (cisbio, 64ANDRPEG), 4× Supplemented Lysis buffer was prepared using the Blocking reagent stock solution (100×) and Lysis buffer stock solution (4×), and 1× Supplemented Lysis buffer was prepared using the 4× Supplemented Lysis buffer and ddH2O. Premixed antibody solutions were prepared using Detection buffer, Androgen Receptor Eu Cryptate antibody, and Androgen Receptor d2 antibody.
(§3) The cells were cultured overnight in a cell incubator. […] After the cells were oscillated for 40 min at room temperature, 16 µL of the cell lysis buffer was added to a 384-well plate, the Premixed antibody solutions were added at 4 µL/well, and the mixture was left to stand at 25 °C for 2 h. […] Table 2. Degradation activity of compounds for AR in LNCaP (T878A) cells

[4] = In vitro liver microsome stability, human; type: in vitro ADME; conditions: human liver microsomes 0.5 mg/mL, 37 °C, NADPH
Protocol: as §1

[5] = system: VCaP cells; test: Assay on inhibitory activity for VCaP cell proliferation (CCK-8); type: cell-based; conditions: Homo sapiens, 168 h
[6] = molecular target: T2, AR in MDA-PCA-2B (L702H\T878A) cells (Homo sapiens, UniProt P10275, L702H/T878A); test: Assay on degradation activity for AR in MDA-PCA-2B (L702H\T878A) cells (HTRF); type: cell-based; conditions: 24 h; for DC50: AR degradation; for Dmax: maximum degradation rate
T2 construct: Assay on degradation activity for AR in MDA-PCA-2B (L702H\T878A) cells; endogenous in cells; host or cells: MDA-PCA-2B cells
T2 sequence (P10275 1-920 L702H/T878A): T1 sequence (P10275 1-920 T878A) with L702H
Protocol: as §2
The cells were cultured overnight in a cell incubator. […] After the cells were oscillated for 40 min at room temperature, 16 µL of the cell lysis buffer was added to a 384-well plate, the Premixed antibody solutions were added at 4 µL/well, and the mixture was left to stand at 25 °C for 2 h. […]

[7] = in vivo; conditions: mouse
Protocol: (§4) ICR mice weighing 18-22 g were randomized into groups of 9 after 3-5 days of acclimatization. The mice in the intragastric administration group were intragastrically given the test compound solution at a dose of 10 mg/kg (20 mg/kg or 30 mg/kg), and the mice in the intravenous injection administration group were intravenously injected with the test compound solution at a dose of 1 mg/kg.
(§5) Blood was collected from the orbit to prepare plasma samples to be tested.
(§6) 30 µL of each of the plasma samples to be tested and a standard curve sample were taken, and an acetonitrile solution containing an internal standard was added. Supernatants were obtained by protein precipitation, diluted with a 1:1 (v:v) mixed solution of acetonitrile and water, and then assayed by LC/MS/MS. Data were fitted using a non-compartmental model.

[8] = molecular target: T3, AR in VCaP cells (Homo sapiens, UniProt P10275); test: Assay on degradation activity for AR in VCaP cells (HTRF human androgen receptor detection kit); type: cell-based; conditions: 24 h; for DC50: AR degradation; for Dmax: maximum degradation rate
T3 construct: Assay on degradation activity for AR in VCaP cells; endogenous in cells; host or cells: VCaP cells
T3 sequence (P10275 1-920): T1 sequence (P10275 1-920 T878A) with A878T
Protocol: as §2
as §3, with “1.” for “2.”, “VCaP” for “LNCaP (T878A)”

[9] = Mouse pharmacokinetics; conditions: for F: Mouse i.g. (0-48 h), 10 mpk vs i.v. 1 mpk
Protocol: as §4, §5, §6

[10] = ICR, mouse, plasma, iv, 1 mg/kg
[11] = ICR, mouse, plasma, po, 10 mg/kg

SMILES	MLM (mouse) Remaining amount at 60 min % [2]	HLM (human) Remaining amount at 60 min % [4]	IC50 [5]	DC50 [6]	Dmax [6]	DC50 [8]	Dmax [8]	F [9]	also measured
COc1cc(O[C@H]2C(C)(C)[C@H](NC(=O)c3ccc(N4CCC(CN5CCc6c(ccc7c(C8CCC(=O)NC8=O)noc67)C5)CC4)cn3)C2(C)C)ccc1C#N (stereo partly shown) [Compound 2]	>70%	>70%	< 2000 nM						IC50 [1]: < 50 nM; Dmax [3]: > 90%
COc1cc(O[C@H]2C(C)(C)[C@H](NC(=O)c3ccc(N4CCC(CN5Cc6ccc7c(C8CCC(=O)NC8=O)noc7c6C5)CC4)cc3)C2(C)C)ccc1C#N (stereo partly shown) [Compound 8]	>70%	>70%		< 500 nM	> 70%	< 5 nM	> 75%	37.00%	AUC at 48 h ([7]; iv, 1 mg/kg): 20200 ng·h/mL; Vd ([7]; iv, 1 mg/kg): 1.1 L/kg; clearance ([7]; iv, 1 mg/kg): 0.7 mL/min/kg; half-life ([7]; iv, 1 mg/kg): 18 h; AUC at 48 h ([7]; po, 10 mg/kg): 77600 ng·h/mL; Cmax ([7]; po, 10 mg/kg): 2810 ng/mL; half-life ([7]; po, 10 mg/kg): 15 h
COc1cc(O[C@H]2C(C)(C)[C@H](NC(=O)c3ccc(N4CCC(CN5CCc6ccc7c(C8CCC(=O)NC8=O)noc7c6C5)CC4)cc3)C2(C)C)ccc1C#N (stereo partly shown) [Compound 9]		>70%		< 500 nM	> 70%				
COc1cc(O[C@H]2C(C)(C)[C@H](NC(=O)c3ccc(N4CCC(CN5CCc6ccc7c(C8CCC(=O)NC8=O)noc7c6CC5)CC4)cc3)C2(C)C)ccc1C#N (stereo partly shown) [Compound 10]	>70%	>70%	< 2000 nM	< 500 nM	> 70%	< 5 nM	> 75%	30.00%	AUC at 48 h ([7]; iv, 1 mg/kg): 5400 ng·h/mL; Vd ([7]; iv, 1 mg/kg): 3.1 L/kg; clearance ([7]; iv, 1 mg/kg): 2.83 mL/min/kg; half-life ([7]; iv, 1 mg/kg): 13 h; AUC at 48 h ([7]; po, 10 mg/kg): 16200 ng·h/mL; Cmax ([7]; po, 10 mg/kg): 620 ng/mL; half-life ([7]; po, 10 mg/kg): 11 h
COc1cc(O[C@H]2C(C)(C)[C@H](NC(=O)c3ccc(N4CCC(CN5Cc6ccc7c(C8CCC(=O)NC8=O)noc7c6C5)CC4)nc3)C2(C)C)ccc1C#N (stereo partly shown) [Compound 11]	>70%	>70%	< 2000 nM	< 500 nM	> 70%	< 5 nM	> 75%		
COc1cc(O[C@H]2C(C)(C)[C@H](NC(=O)c3ccc(N4CCC(CN5CCc6ccc7c(C8CCC(=O)NC8=O)noc7c6C5)CC4)nc3)C2(C)C)ccc1C#N (stereo partly shown) [Compound 12]		>70%		< 500 nM	> 70%				
COc1cc(O[C@H]2C(C)(C)[C@H](NC(=O)c3ccc(N4CCC(CN5CCc6ccc7c(C8CCC(=O)NC8=O)noc7c6CC5)CC4)nc3)C2(C)C)ccc1C#N (stereo partly shown) [Compound 13]	>70%		< 2000 nM	< 500 nM	> 70%	< 5 nM	> 75%	41.00%	AUC [9, 10]: 6810 ng·h/mL; Vd [9, 10]: 2 L/kg; clearance [9, 10]: 2.33 mL/min/kg; half-life [9, 10]: 9.7 h; AUC [9, 11]: 28000 ng·h/mL; Cmax [9, 11]: 1390 ng/mL; half-life [9, 11]: 8.3 h
